In one assay the target is T1, human ENT1 (Homo sapiens, UniProt Q99808).
T1 construct: JAR cells expressing ENT1 were purchased from ATCC; host or cells: JAR cells
T1 sequence (Q99808 1-456): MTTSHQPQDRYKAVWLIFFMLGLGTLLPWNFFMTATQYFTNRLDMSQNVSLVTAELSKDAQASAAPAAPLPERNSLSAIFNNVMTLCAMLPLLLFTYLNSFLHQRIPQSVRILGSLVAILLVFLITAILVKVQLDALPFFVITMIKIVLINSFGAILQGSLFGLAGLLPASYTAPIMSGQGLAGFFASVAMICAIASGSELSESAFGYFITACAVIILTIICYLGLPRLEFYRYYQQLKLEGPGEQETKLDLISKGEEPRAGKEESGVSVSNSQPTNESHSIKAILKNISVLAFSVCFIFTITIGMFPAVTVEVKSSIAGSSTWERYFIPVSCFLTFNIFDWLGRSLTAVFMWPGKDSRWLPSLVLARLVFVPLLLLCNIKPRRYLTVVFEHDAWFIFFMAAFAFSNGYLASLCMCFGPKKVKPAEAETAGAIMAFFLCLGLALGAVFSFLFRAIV
In words: ENT1 binding assay (competition with Sahenta-DY647 on JAR cells). Conditions: competition with SAHENTA-DY647 binding; IC50 categorized; read-out: Binding Assay IC50. An outline of the steps: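 Fluorescent-tracer displacement: compound incubated with JAR cells 30 min, 4 °C, before Sahenta-DY647 (100 nM) for another 30 min, 4 °C, in Hepes-buffered HBSS with 0.1% BSA. Bound tracer read at 670 nm after washes; IC50 from four-parameter fit, reported as mean of pIC50 values.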

Assay [1] relates to stimulated primary human T cells. In words: T cell proliferation assay, Condition A (X-VIVO15). It is filed as cell-based. The conditions noted are these: Homo sapiens, T-cell, 96 h; Condition A: X-VIVO15 medium; anti-CD3/anti-CD28 beads, ATP, 4 days; CFSE-lo T cells. As for the experimental part: (§1) The goal of this study was to determine the potency of ENT1 inhibitors by measuring the rescued proliferation of stimulated primary human T cells incubated in the presence of 100 uM Adenosine triphosphate (ATP), in baseline conditions (condition A) or in the presence of various proteins known to bind small molecules (condition B).
(§2) Venous blood from healthy volunteers, all of whom signed an informed consent approved by the Ethics Committee (FOR—UIC—BV-050-01-01 ICF_HBS_HD Version 5.0), was obtained by ImmuneHealth (Centre Hospitalier Universitaire Tivoli, La Louviere, Belgium). Mononuclear cells were collected by density gradient centrifugation, using SepMate-50 tubes (StemCell Technologies, Grenoble, France) and Lymphoprep (Stemcell Technologies) according to the manufacturer's instructions. CD3+ T cells were isolated by immunomagnetic negative selection, using the EasySep Human T Cell Isolation Kit (StemCell Technologies) as per the manufacturer's instructions. CD3+ T cells were stored in heat inactivated FBS (hiFBS; Gibco, ThermoFisher Scientific, Merelbeke, Belgium) and 10% DMSO in liquid nitrogen.
(§3) Purified human CD3+ T cells were thawed and washed once with RPMI1640 medium, UltraGlutamine (Lonza, Verviers, Belgium) containing 10% hiFBS. Cells were resuspended in PBS containing 10% hiFBS at 1×10^7 cells/ml. One volume of cells was combined with a matching volume of 2 μM CFSE solution in PBS, mixed well by pipetting, and incubated at room temperature for 5 minutes under rotation and protected from light. Excess CFSE was quenched by addition of PBS containing 10% hiFBS, and the cells were centrifuged (300×rcf, 7 minutes) and resuspended in X-VIVO15. Cells were again centrifuged and resuspended in X-VIVO15 for counting.
(§4) Cells were resuspended at 1.6×10^6 cells/mL in X-VIVO15 medium (Condition A) or X-VIVO15 medium containing 4% (v/v) HSA (Sigma-Aldrich, Diegem, Belgium) and 0.2% (v/v) ai-Acid Glycoprotein (Sigma-Aldrich, Diegem, Belgium) (Condition B).
(§5) […] of cell suspension (2×10^4 cells) was added to wells of sterile flat-bottom 384-well plates. Cells were activated by adding […] of anti-CD3 anti-CD28 coated microbeads (Dynabeads human T-activator CD3/CD28; Life Technologies, Paisley, UK) suspended in X-VIVO15 medium or X-VIVO15 medium containing 4% (v/v) HSA and 0.2% (v/v) ai-Acid Glycoprotein at a ratio of one microbead per two cells. Serial dilutions of the ENT1 inhibitors were conducted in X-VIVO15 medium and […] of the diluent was added to the wells. Cells were mixed by pipetting up and down and pre-incubated for 30 minutes in a 37° C. humidified tissue culture incubator with 5% CO2. After pre-incubation, cells were cultured in the presence or absence of ATP (Sigma-Aldrich) at a final concentration of […]. The final well volume was 50 μl in all cases. Experiments were performed in biological duplicates. Cells were mixed by pipetting up and down and incubated for 4 days in a 37° C. humidified tissue culture incubator with 5% CO2.
(§6) Samples were run on a BD LSR Fortessa FACS machine (BD FACSDiva Software v9.0.1). Data were analyzed using FlowJo (BD, v10.7.1). T cell proliferation was determined by measuring the frequency of ‘CFSE^lo’ (i.e. CFSE-diluted).
(§7) T cell proliferation data were analyzed using FlowJo software (Version 10.6.2). Dead cells and cellular debris were excluded on the basis of forward and side scatter profile and singlet cells were selected for further analysis.
(§8) T cell proliferation was determined based on the percent CFSE^lo total T cells for each condition. The data were plotted on the y-axis against log molar (M) concentration of ENT1 inhibitors on the x-axis in GraphPad Prism (version 9.0.0). IC50 and IC90 values were generated with the ‘log(agonist) vs. response—Find ECanything(F))’ function with F constrained to 50 or 90, respectively. pICF values were generated by taking the −logECF values.

Assay [2] shares this test system. Kind of assay: T cell proliferation assay, Condition B (X-VIVO15, 2% HSA and 0.1% AAG). Format: cell-based. Conditions: Homo sapiens, T-cell, 96 h; Condition B: X-VIVO15 medium containing HSA and α1-Acid Glycoprotein; anti-CD3/anti-CD28 beads, ATP, 4 days; CFSE-lo T cells. As for the experimental part:
as §1
Condition B: X-VIVO15, 2% Human Serum Albumin (HSA) and 0.1% α-1-Acid Glycoprotein (AAG)
as §2, §3, §4, §5, §6, §7, §8

With `C[C@H]1O[C@@H](n2c(NC3CC(F)(F)C3)nc3c(OCc4ccc(C#N)cc4)ncnc32)[C@H](O)[C@@H]1O` [Compound 49], the half-maximal inhibitory concentration (IC50) at human ENT1 was 1 to 20 nM; in assay [1], greater than 500 nM; in assay [2], 20 to 500 nM.

For the compound `C[C@H]1O[C@@H](n2c(NC3CCC(O)CC3)nc3c(OCc4ccc(OC(F)F)cc4)ncnc32)[C@H](O)[C@@H]1O` (stereo partly drawn) [Compound 53], the 50% inhibitory concentration (IC50) on human ENT1 was less than 1 nM; in assay [1], less than 1 nM; in assay [2], 1 to 20 nM.

Regarding `C[C@H]1O[C@@H](n2c(NC3CCS(=O)(=O)CC3)nc3c(OCc4ccc(C#N)cc4)ncnc32)[C@H](O)[C@@H]1O` [Compound 54], the half-maximal inhibitory concentration (IC50) at human ENT1 was less than 1 nM; in assay [1] it was less than 1 nM; in assay [2], 20 to 500 nM.

In the case of `C[C@H]1O[C@@H](n2c(NC3CCS(=O)(=O)CC3)nc3c(OCc4ccc(OC(F)F)cc4)ncnc32)[C@H](O)[C@@H]1O` [Compound 55], the IC50 on human ENT1 is less than 1 nM; in assay [1] it was less than 1 nM; in assay [2] it was 1 to 20 nM.

For the compound `C[C@H]1O[C@@H](n2c(NCc3cnn(C)c3)nc3c(OCc4ccc(C#N)cc4)ncnc32)[C@H](O)[C@@H]1O` [Compound 65], the concentration for half-maximal inhibition (IC50) on human ENT1 was in the range of 1 to 20 nM; in assay [1], 1 to 20 nM; in assay [2] it was 20 to 500 nM.

In the case of `C[C@H]1O[C@@H](n2c(N[C@@H]3CCOC3)nc3c(OCc4ccc(C#N)cc4)ncnc32)[C@H](O)[C@@H]1O` [Compound 77], the figures for the 50% inhibitory concentration (IC50) (on human ENT1; in assay [1]; in assay [2]) were 1 to 20 nM, less than 1 nM and 20 to 500 nM, respectively.

Consider `CC(=O)N1CCC(Nc2nc3c(OCc4ccc(OC(F)F)cc4)ncnc3n2[C@@H]2O[C@H](C)[C@@H](O)[C@H]2O)CC1` [Compound 79], for which the values for the half-maximal inhibitory concentration (IC50) (on human ENT1; in assay [1]; in assay [2]) were less than 1 nM, less than 1 nM and 1 to 20 nM, respectively.

In the case of `C[C@H]1O[C@@H](n2c(N[C@@H]3CCC(F)(F)C3)nc3c(OCc4ccc(C#N)cc4)ncnc32)[C@H](O)[C@@H]1O` [Compound 81], the IC50 on human ENT1 is less than 1 nM; in assay [1], less than 1 nM; in assay [2] it was 20 to 500 nM.

Consider `C[C@H]1O[C@@H](n2c(NC3CCCC3)nc3c(OCc4ccc(C#N)c(F)c4)ncnc32)[C@H](O)[C@@H]1O` [Compound 89], for which the values for the 50% inhibitory concentration (IC50) (at human ENT1; in assay [1]; in assay [2]) were less than 1 nM, less than 1 nM and 20 to 500 nM, respectively.

`C[C@H]1O[C@@H](n2c(NCC3CCOC3)nc3c(OCc4ccc(C#N)cc4)ncnc32)[C@H](O)[C@@H]1O` (stereo partly drawn) [Compound 108]: the half-inhibitory concentration (IC50) fell in the range of 1 to 20 nM at human ENT1, 1 to 20 nM in assay [1] and 20 to 500 nM in assay [2].

`C[C@H]1O[C@@H](n2c(NCC3CCOC3)nc3c(OCc4ccc(OC(F)F)cc4)ncnc32)[C@H](O)[C@@H]1O` (stereo partly drawn) [Compound 112]: the IC50 on human ENT1 was 1 to 20 nM; in assay [1], less than 1 nM; in assay [2], 20 to 500 nM.

Turning to `C[C@H]1O[C@@H](n2c(NCC3CCOCC3)nc3c(OCc4ccc(OC(F)F)cc4)ncnc32)[C@H](O)[C@@H]1O` [Compound 113], the half-maximal inhibitory concentration (IC50) was 1 to 20 nM at human ENT1, less than 1 nM in assay [1] and 20 to 500 nM in assay [2].

With `C[C@H]1O[C@@H](n2c(NCC3CC(F)(F)C3)nc3c(OCc4ccc(OC(F)F)nc4)ncnc32)[C@H](O)[C@@H]1O` [Compound 114], the IC50 on human ENT1 was 1 to 20 nM; in assay [1], less than 1 nM; in assay [2], 20 to 500 nM.

Turning to `C[C@H]1O[C@@H](n2c(N)nc3c(N4CCc5ccc([N+](=O)[O-])cc5C4)ncnc32)[C@H](O)[C@@H]1O` [Compound 145], the IC50 is less than 1 nM at human ENT1, 1 to 20 nM in assay [1] and 20 to 500 nM in assay [2].

Regarding `CCNc1nc2c(N3CCc4ccc([N+](=O)[O-])cc4C3)ncnc2n1[C@@H]1O[C@H](C)[C@@H](O)[C@H]1O` [Compound 150], the 50% inhibitory concentration (IC50) was in the range of 1 to 20 nM on human ENT1, 1 to 20 nM in assay [1] and 20 to 500 nM in assay [2].

Regarding `COC(=O)[C@H]1O[C@@H](n2cnc3c(SCc4ccc([N+](=O)[O-])cc4)ncnc32)[C@H](O)[C@@H]1O` [Compound 152], the IC50 on human ENT1 is 1 to 20 nM; in assay [1], greater than 500 nM; in assay [2], greater than 500 nM.

With `C[C@H]1O[C@@H](n2c(NC3CCCC3)nc3c(N4CCc5ccc(C#N)cc5C4)ncnc32)[C@H](O)[C@@H]1O` [Compound 153], the half-inhibitory concentration (IC50) on human ENT1 was 1 to 20 nM; in assay [1], less than 1 nM; in assay [2], 20 to 500 nM.

Take `CC(C)Nc1nc2c(N3CCc4ccc(C#N)cc4C3)ncnc2n1[C@@H]1O[C@H](C)[C@@H](O)[C@H]1O` [Compound 154]: the half-maximal inhibitory concentration (IC50) on human ENT1 was 1 to 20 nM; in assay [1] it was 1 to 20 nM; in assay [2], greater than 500 nM.

Turning to `OC[C@H]1O[C@@H](n2cnc3c(OCc4ccc(OC(F)(F)F)cc4)nc(Cl)nc32)[C@H](O)[C@@H]1O` [Compound 156], the IC50 at human ENT1 was 1 to 20 nM; in assay [1], 1 to 20 nM; in assay [2], 20 to 500 nM.

Consider `C[C@H]1O[C@@H](n2cnc3c(/C=C/c4ccc([N+](=O)[O-])cc4)ncnc32)[C@H](O)[C@@H]1O` [Compound 157], for which the half-maximal inhibitory concentration (IC50) at human ENT1 is 1 to 20 nM; in assay [1], less than 1 nM; in assay [2] it was 20 to 500 nM.

Turning to `OC[C@H]1O[C@@H](n2c(NC3CCCC3)nc3c(SCc4ccccc4)ncnc32)[C@H](O)[C@@H]1O` [Compound 158], the IC50 was in the range of 1 to 20 nM on human ENT1, 1 to 20 nM in assay [1] and 20 to 500 nM in assay [2].

With `O=[N+]([O-])c1ccc(CSc2ncnc3c2ncn3[C@@H]2O[C@H](CF)[C@@H](O)[C@H]2O)cc1` [Compound 159], the values for the IC50 (on human ENT1; in assay [1]; in assay [2]) were 1 to 20 nM, 1 to 20 nM and greater than 500 nM, respectively.

As for `C[C@H]1O[C@@H](n2cnc3c(OCc4ccc(OC(F)F)cc4)nc(Cl)nc32)[C@H](O)[C@@H]1O` [Compound 161], the IC50 was in the range of 1 to 20 nM on human ENT1, 1 to 20 nM in assay [1] and 20 to 500 nM in assay [2].

Regarding `OCCOC[C@H]1O[C@@H](n2cnc3c(OCc4ccc(OC(F)F)cc4)nc(Cl)nc32)[C@H](O)[C@@H]1O` [Compound 162], the IC50 at human ENT1 was in the range of 1 to 20 nM; in assay [1], 1 to 20 nM; in assay [2] it was 20 to 500 nM.

In general, IC50 refers to the concentration at which inhibition is half-maximal.

Values taken from patent publication US20260184712A1, “Heterocyclic Compounds as ENT Inhibitors and Compounds for Use in the Treatment of Cancers” (iTeos Belgium SA, priority 2022, published 2026).
